Entries after “also recorded” stand apart in the source; their conditions may differ.
Columns and labels:
[1] = target: T1, beta 2 adrenergic receptors (Cavia porcellus, UniProt Q8K4Z4); assay: Salbutamol relaxation of cobaio trachea pre-contracted with carbacol; type: cell-based, guinea pig; conditions: salbutamol 10^−10-3.3×10^−5 M, strips pre-contracted with carbacol 10 microM, n=4
T1 construct: from tissue; host or cells: guinea pig trachea strips pre-contracted with carbachol
Source text: Selectivity Assay for Protein G-Coupled, Beta-Adrenergic, Muscarinic Cholinergic and Histaminergic Bioreceptors
Determination of the Inhibitory Potency (IC50) of LASSBio 772 on Vasoconstriction of the Cobaio (Guinea Pig) Trachea
Cobaios albinos from both sexes, weighing between 400 and 600 g were used in this experiment. The animals were sacrificed by cervical displacement and posterior bleed. Then, their tracheas were removed, kept in 5 microM indometacin added Krebs-Henseleit physiologic solution and oxygenated with carbogenic mixture (95% O2 and 5% CO2), proceeding the removal of the connective and adhered adipose tissue. From these tracheas were obtained segments with 4-6 rings, that are sectioned in the opposite side of the smooth musculature, originating strips used in the contractions assay (ARAKIDA et al., J. Pharmacol. Exper. Therap., 287: 633-639, 1998). […]
After the period, the organ is treated with agonists that will induce contractions. […] The tissue viability was evaluated by contraction induction with histamine 100 microM or carbacol 10 microM. […]
In another experiment the compound was evaluated for its capability to inhibit the relaxation produced by salbutamol (10^−10-3.3×10^−5 M), beta 2 adrenergic agonist, in strips of cobaio trachea pre-contracted with carbacol (10 microM).

alpha 1A subtype = target: T2, alpha 1A subtype (Rattus norvegicus, UniProt P43140); assay: [3H]prazosin binding assay in rat salivary gland; conditions: for selectivity index (I.S. alpha 1B/alpha 1A): alpha 1A versus alpha 1B subtype
T2 sequence (P43140 1-466): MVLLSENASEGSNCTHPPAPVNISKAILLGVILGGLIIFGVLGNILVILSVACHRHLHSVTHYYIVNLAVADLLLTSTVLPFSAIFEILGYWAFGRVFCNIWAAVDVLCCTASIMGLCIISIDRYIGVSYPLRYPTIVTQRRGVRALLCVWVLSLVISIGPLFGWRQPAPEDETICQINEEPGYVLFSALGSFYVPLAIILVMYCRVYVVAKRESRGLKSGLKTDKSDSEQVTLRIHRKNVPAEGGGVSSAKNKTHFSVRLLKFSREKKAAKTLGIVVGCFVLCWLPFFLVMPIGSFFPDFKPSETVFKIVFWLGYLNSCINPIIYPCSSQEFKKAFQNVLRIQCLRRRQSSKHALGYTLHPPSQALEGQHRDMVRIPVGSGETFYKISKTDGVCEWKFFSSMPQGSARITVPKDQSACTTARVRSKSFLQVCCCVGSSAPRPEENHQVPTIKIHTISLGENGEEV

T1 sequence (Q8K4Z4 whole entry): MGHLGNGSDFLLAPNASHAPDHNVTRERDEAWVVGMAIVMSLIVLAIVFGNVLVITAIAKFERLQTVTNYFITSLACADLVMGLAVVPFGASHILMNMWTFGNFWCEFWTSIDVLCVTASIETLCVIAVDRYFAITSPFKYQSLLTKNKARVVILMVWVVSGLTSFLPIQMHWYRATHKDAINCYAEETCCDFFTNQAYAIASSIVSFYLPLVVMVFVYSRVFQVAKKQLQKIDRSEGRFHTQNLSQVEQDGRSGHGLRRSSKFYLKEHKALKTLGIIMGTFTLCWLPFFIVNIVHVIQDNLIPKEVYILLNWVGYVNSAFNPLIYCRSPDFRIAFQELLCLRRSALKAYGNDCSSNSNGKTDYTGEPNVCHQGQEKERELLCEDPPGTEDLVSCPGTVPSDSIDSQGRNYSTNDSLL

## COc1ccccc1N1CCN(CCc2ccc3c(c2)OCO3)CC1 [LASSBio 772, 1-(2-1,3-Benzodioxol-5-yl-ethyl)-4-(2-methoxy-phenyl)-piperazine]
[1]
  inhibition of the relaxation produced by salbutamol: not able to inhibit significantly the relaxing effect of salbutamol; also recorded: did not present any activity
Alpha 1A subtype
  IC50: 0.26 nM
  selectivity indexes of alpha 1A/alpha 1D versus alpha 1B subtype and beta 2, H1 and cholinergic muscarinic receptors: at least a thousand times
  selectivity index (I.S. alpha 1B/alpha 1A): ≥ 1700
Alpha 1A subtype; listed as LASSBio-772
  selectivity index (I.S. alpha 1B/alpha 1A): 1730
Alpha 1A subtype; rat salivary gland, Cheng Prussof
  Ki: 0.14 nM
